Source: patent publication US10294202B2, “Pyrrolidinones as herbicides” (FMC Corporation, priority 2013, dated 2019)

Legend:
[1] = test system: barnyardgrass; assay: Test A pre-/postemergence herbicide test; format: in vivo, Echinochloa crus-galli; conditions: for Barnyardgrass plant response rating: Preemergence, visual rating on 0 to 100 scale (0 no effect, 100 complete control)
In short: (§1)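 Formulated compound (non-phytotoxic solvent, surfactant) sprayed pre- onto soil of seeded loam/sand pots or post- onto seedlings at 1–2 leaves; ~10 d greenhouse; 0–100 visual control rating versus untreated.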

[2] = test system: giant foxtail; assay: Test A pre-/postemergence herbicide test; format: in vivo, Setaria faberii; conditions: for Foxtail, Giant plant response rating: Preemergence, visual rating on 0 to 100 scale (0 no effect, 100 complete control)
In short: as §1

[3] = test system: corn; assay: Test A pre-/postemergence herbicide test; format: in vivo, Zea mays; conditions: for Corn plant response rating: Preemergence, visual rating on 0 to 100 scale (0 no effect, 100 complete control)
In short: as §1

[4] = test system: barnyardgrass; assay: Test B flooded paddy test; format: in vivo, Echinochloa crus-galli; conditions: 250 g ai/ha, Flood; scale of 0 to 100 where 0 is no effect and 100 is complete control
Protocol: (§2) Plant species in the flooded paddy test selected from rice (Oryza sativa), sedge, umbrella (small-flower umbrella sedge, Cyperus difformis), ducksalad (Heteranthera limosa), and barnyardgrass (Echinochloa crus-galli) were grown to the 2-leaf stage for testing. At time of treatment, test pots were flooded to 3 cm above the soil surface, treated by application of test compounds directly to the paddy water, and then maintained at that water depth for the duration of the test. Treated plants and controls were maintained in a greenhouse for 13 to 15 days, after which time all species were compared to controls and visually evaluated. Plant response ratings, summarized in Table B, are based on a scale of 0 to 100 where 0 is no effect and 100 is complete control. A dash (-) response means no test result.

[5] = test system: wheat; assay: Test A pre-/postemergence herbicide test; format: in vivo, Triticum aestivum; conditions: for Wheat plant response rating: Preemergence, visual rating on 0 to 100 scale (0 no effect, 100 complete control)
In short: as §1

[6] = test system: ducksalad; assay: Test B flooded paddy test; format: in vivo, Heteranthera limosa; conditions: 250 g ai/ha, Flood; scale of 0 to 100 where 0 is no effect and 100 is complete control
Protocol: as §2

[7] = test system: pigweed; assay: Test A pre-/postemergence herbicide test; format: in vivo, Amaranthus retroflexus; conditions: for Pigweed plant response rating: Preemergence, visual rating on 0 to 100 scale (0 no effect, 100 complete control)
In short: as §1

[8] = test system: velvetleaf; assay: Test A pre-/postemergence herbicide test; format: in vivo, Abutilon theophrasti; conditions: for Velvetleaf plant response rating: Preemergence, visual rating on 0 to 100 scale (0 no effect, 100 complete control)
In short: as §1

[9] = test system: crabgrass, large; assay: Test A pre-/postemergence herbicide test; format: in vivo, Digitaria sanguinalis; conditions: for Crabgrass, Large plant response rating: Preemergence, visual rating on 0 to 100 scale (0 no effect, 100 complete control)
In short: as §1

[10] = test system: morningglory; assay: Test A pre-/postemergence herbicide test; format: in vivo, Ipomoea spp.
In short: as §1

[11] = test system: rice; assay: Test B flooded paddy test; format: in vivo, Oryza sativa; conditions: 250 g ai/ha, Flood; scale of 0 to 100 where 0 is no effect and 100 is complete control
Protocol: as §2

[12] = test system: sedge, umbrella; assay: Test B flooded paddy test; format: in vivo, Cyperus difformis; conditions: 250 g ai/ha, Flood; scale of 0 to 100 where 0 is no effect and 100 is complete control
Protocol: as §2

[13] = test system: barnyardgrass; assay: Test C flooded paddy test; format: in vivo, Echinochloa crus-galli; conditions: Flood
In short: (§3)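 2-leaf stage; flood 3 cm over soil; compound into paddy water; depth held; greenhouse 13–15 d; visual % control vs untreated (0 = none, 100 = complete); "-" = not tested.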

[14] = test system: ducksalad; assay: Test C flooded paddy test; format: in vivo, Heteranthera limosa; conditions: Flood
In short: as §3

[15] = test system: blackgrass; assay: Test A postemergence herbicide test; format: in vivo, Alopecurus myosuroides
In short: (§4)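 Young potted plants in a loam–sand mix, one- to two-leaf stage and 2–10 cm tall, receive the test chemical postemergence and stay in a greenhouse for approximately 10 days. Injury is then judged by eye against untreated plants, scored 0 (none) to 100 (complete control).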

[16] = test system: rice; assay: Test C flooded paddy test; format: in vivo, Oryza sativa; conditions: Flood
In short: as §3

[17] = test system: kochia; assay: Test A pre-/postemergence herbicide test; format: in vivo, Kochia scoparia; conditions: for Plant response rating, Kochia: 0 to 100 scale
In short: as §1

[18] = test system: galium; assay: Test A postemergence herbicide test; format: in vivo, Galium aparine
In short: as §4

[19] = test system: ragweed; assay: Test A pre-/postemergence herbicide test; format: in vivo, Ambrosia elatior; conditions: for Plant response rating, Ragweed: 0 to 100 scale
In short: as §1

[20] = test system: sedge, umbrella; assay: Test C flooded paddy test; format: in vivo, Cyperus difformis; conditions: Flood
In short: as §3

[21] = test system: ryegrass, Italian; assay: Test A pre-/postemergence herbicide test; format: in vivo, Lolium multiflorum; conditions: for Plant response rating, Ryegrass, Italian: 0 to 100 scale
In short: as §1

[22] = Postemergence, 125 g ai/ha, 0 to 100 scale, 0 no effect, 100 complete control
[23] = Postemergence, 500 g ai/ha, 0 to 100 scale (0 no effect, 100 complete control)
[24] = preemergence, 500 g ai/ha, 0 to 100 scale (0 no effect, 100 complete control)
[25] = preemergence, 500 g ai/ha, 0 to 100 scale
[26] = 125 g ai/ha, scale of 0 to 100 where 0 is no effect and 100 is complete control, 13 to 15 days
[27] = 125 g ai/ha, visual rating, 0 to 100 scale, 0 no effect, 100 complete control, approximately 10 days, preemergence
[28] = 125 g ai/ha, 0 to 100 scale, 0 no effect, 100 complete control
[29] = 125 g ai/ha, visual rating, 0 no effect, 100 complete control, approximately 10 days, preemergence
[30] = Postemergence, 125 g ai/ha, 0 no effect, 100 complete control

CC(C)(C)OC(=O)Nc1cccc(C2CNC(=O)C2C(=O)Nc2cccc(F)c2F)c1 (stereo not shown) [Compound 70]
Plant response rating, Barnyardgrass [1, 22]: 20
Plant response rating, Barnyardgrass [1, 23]: 60
Barnyardgrass plant response rating ([1]; 125 g ai/ha): 20
Plant response rating, Barnyardgrass [1, 24]: 90
Plant response rating, Foxtail, Giant [2, 22]: 20
Plant response rating, Foxtail, Giant [2, 23]: 80
Foxtail, Giant plant response rating ([2]; 125 g ai/ha): 70
Plant response rating, Foxtail, Giant [2, 25]: 90
Plant response rating, Corn [3, 22]: 0
Plant response rating, Corn [3, 23]: 0
Corn plant response rating ([3]; 125 g ai/ha): 0
Plant response rating, Corn [3, 25]: 0
Plant response rating, Barnyardgrass [4]: 40
Plant response rating, Wheat [5, 22]: 0
Plant response rating, Wheat [5, 23]: 40
Wheat plant response rating ([5]; 125 g ai/ha): 0
Plant response rating, Wheat [5, 25]: 20
Plant response rating, Ducksalad [6]: 85
Plant response rating, Pigweed [7, 22]: 0
Plant response rating, Pigweed [7, 23]: 20
Pigweed plant response rating ([7]; 125 g ai/ha): 0
Plant response rating, Pigweed [7, 25]: 0
Plant response rating, Velvetleaf [8, 22]: 0
Plant response rating, Velvetleaf [8, 23]: 20
Velvetleaf plant response rating ([8]; 125 g ai/ha): 0
Plant response rating, Velvetleaf [8, 25]: 0
Plant response rating, Crabgrass, Large [9, 22]: 20
Plant response rating, Crabgrass, Large [9, 23]: 70
Crabgrass, Large plant response rating ([9]; 125 g ai/ha): 80
Plant response rating, Crabgrass, Large [9, 25]: 90
Plant response rating, Morningglory [10, 22]: 0
Plant response rating, Morningglory [10, 23]: 0
Morningglory plant response rating ([10]; Preemergence, 125 g ai/ha, visual rating on 0 to 100 scale (0 no effect, 100 complete control)): 0
Plant response rating, Morningglory [10, 25]: 0
Plant response rating, Rice [11]: 35
Plant response rating, Sedge, Umbrella [12]: 70

O=C1NCC(c2ccccc2)C1C(=O)Nc1ccccc1C(F)(F)F (racemic) [Compound 82]
Plant response rating, Barnyardgrass [1, 22]: 0
Plant response rating, Barnyardgrass [1, 23]: 50
Barnyardgrass plant response rating ([1]; 125 g ai/ha): 0
Plant response rating, Barnyardgrass [1, 24]: 50
Plant response rating, Foxtail, Giant [2, 22]: 0
Plant response rating, Foxtail, Giant [2, 23]: 70
Foxtail, Giant plant response rating ([2]; 125 g ai/ha): 20
Plant response rating, Foxtail, Giant [2, 25]: 70
Plant response rating, Corn [3, 22]: 0
Plant response rating, Corn [3, 23]: 0
Corn plant response rating ([3]; 125 g ai/ha): 0
Plant response rating, Corn [3, 25]: 0
Plant response rating, Barnyardgrass [4]: 0
Plant response rating, Wheat [5, 22]: 0
Plant response rating, Wheat [5, 23]: 10
Wheat plant response rating ([5]; 125 g ai/ha): 0
Plant response rating, Wheat [5, 25]: 0
Plant response rating, Ducksalad [6]: 70
Plant response rating, Pigweed [7, 22]: 0
Plant response rating, Pigweed [7, 23]: 0
Pigweed plant response rating ([7]; 125 g ai/ha): 0
Plant response rating, Pigweed [7, 25]: 0
Plant response rating, Velvetleaf [8, 22]: 0
Plant response rating, Velvetleaf [8, 23]: 20
Velvetleaf plant response rating ([8]; 125 g ai/ha): 0
Plant response rating, Velvetleaf [8, 25]: 0
Plant response rating, Crabgrass, Large [9, 22]: 50
Plant response rating, Crabgrass, Large [9, 23]: 70
Crabgrass, Large plant response rating ([9]; 125 g ai/ha): 80
Plant response rating, Crabgrass, Large [9, 25]: 90
Plant response rating, Morningglory [10, 22]: 0
Plant response rating, Morningglory [10, 23]: 10
Plant response rating, Morningglory [10, 25]: 0
Plant response rating, Sedge, Umbrella [12]: 80

O=C1NCC(c2cccc(C(F)(F)F)c2)C1C(=O)Nc1nc(C(F)(F)F)co1 (racemic) [Compound 114]
Plant response rating, Barnyardgrass [13, 26]: 0
Plant response rating, Barnyardgrass ([13]; 250 g ai/ha, scale 0 to 100): 0
Plant response rating, Barnyardgrass ([13]; 500 g ai/ha, scale 0 to 100): 0
Plant response rating, Barnyardgrass ([13]; 1000 g ai/ha, scale 0 to 100): 0
Plant response rating, Barnyardgrass [1, 27]: 20
Plant response rating, Barnyardgrass [1, 22]: 20
Plant response rating, Barnyardgrass [1, 23]: 60
Plant response rating, Barnyardgrass [1, 24]: 50
Plant response rating, Foxtail, Giant [2, 27]: 20
Plant response rating, Foxtail, Giant [2, 22]: 40
Foxtail, Giant plant response rating (0 to 100 scale, 0 is no effect, 100 is complete control) ([2]; Postemergence, 500 g ai/ha): 70
Plant response rating, Foxtail, Giant [2, 25]: 70
Plant response rating, Ducksalad [14, 26]: 20
Plant response rating, Ducksalad ([14]; 250 g ai/ha, scale 0 to 100): 30
Plant response rating, Ducksalad ([14]; 500 g ai/ha, scale 0 to 100): 70
Plant response rating, Ducksalad ([14]; 1000 g ai/ha, scale 0 to 100): 80
Plant response rating, Blackgrass [15, 28]: 20
Plant response rating, Blackgrass ([15]; 500 g ai/ha, 0 to 100 scale (0 no effect, 100 complete control)): 30
Plant response rating, Rice [16, 26]: 0
Plant response rating, Rice ([16]; 250 g ai/ha, scale 0 to 100): 0
Plant response rating, Rice ([16]; 500 g ai/ha, scale 0 to 100): 0
Plant response rating, Rice ([16]; 1000 g ai/ha, scale 0 to 100): 0
Plant response rating, Corn [3, 22]: 0
Plant response rating, Corn [3, 23]: 20
Plant response rating, Kochia [17, 29]: 0
Plant response rating, Kochia [17, 30]: 0
Kochia plant response rating (0 to 100 scale, 0 is no effect, 100 is complete control) ([17]; Postemergence, 500 g ai/ha): 20
Plant response rating, Kochia ([17]; preemergence, 500 g ai/ha): 0
Plant response rating, Galium [18, 28]: 0
Galium plant response rating (0 to 100 scale, 0 is no effect, 100 is complete control) ([18]; 500 g ai/ha): 20
Plant response rating, Wheat [5, 22]: 0
Wheat plant response rating (0 to 100 scale, 0 is no effect, 100 is complete control) ([5]; Postemergence, 500 g ai/ha): 20
Plant response rating, Ragweed [19, 29]: 0
Plant response rating, Ragweed [19, 30]: 0
Ragweed plant response rating (0 to 100 scale, 0 is no effect, 100 is complete control) ([19]; Postemergence, 500 g ai/ha): 0
Plant response rating, Ragweed ([19]; preemergence, 500 g ai/ha): 0
Plant response rating, Sedge, Umbrella [20, 26]: 0
Plant response rating, Sedge, Umbrella ([20]; 250 g ai/ha, scale 0 to 100): 0
Plant response rating, Sedge, Umbrella ([20]; 500 g ai/ha, scale 0 to 100): 0
Plant response rating, Sedge, Umbrella ([20]; 1000 g ai/ha, scale 0 to 100): 0
Plant response rating, Pigweed [7, 27]: 0
Plant response rating, Pigweed [7, 22]: 0
Pigweed plant response rating (0 to 100 scale, 0 is no effect, 100 is complete control) ([7]; Postemergence, 500 g ai/ha): 0
Plant response rating, Pigweed [7, 25]: 0
Plant response rating, Ryegrass, Italian [21, 29]: 0
Plant response rating, Ryegrass, Italian [21, 30]: 0
Ryegrass, Italian plant response rating (0 to 100 scale, 0 is no effect, 100 is complete control) ([21]; Postemergence, 500 g ai/ha): 60
Plant response rating, Ryegrass, Italian ([21]; preemergence, 500 g ai/ha): 30
